Marks after values point to notes of the source that are not given here.
Key:
[1] = QTc analysis (heart rate-corrected QT interval) on ECGs, phase II trial; conditions: for Least Square mean QT interval: all doses of first 6 cycles
[2] = Toxicities and cardiac events observed on the phase II trial; type: in vivo, human
Source text: The protocol (NCI 01-C-0049 or 1312) and informed consent were approved by the Institutional Review Board of the National Cancer Institute. All data used in this analysis were obtained from patients who signed an informed consent and were enrolled and treated at the NIH Warren Grant Magnuson Clinical Center. Toxicities were reported using the National Cancer Institute Common Toxicity Criteria, CTC version 2.0. The Inclusion Criteria required measurable disease, an age of 18 years or older, an ECOG performance status of 0, 1 or 2, and a life expectancy of >12 wk. Required laboratory values included AGC≧1000/μL, platelets≧100,000/μL, bilirubin <1.5× the institutional upper limit of normal (ULN), AST <3×ULN, and creatinine <1.5×ULN. Patients with a myocardial infarction within the previous 6 months, a left ventricular ejection fraction (LVEF) below normal (<45% if performed by MUGA, or <50% if performed by echocardiogram or cardiac MRI), a corrected QT interval of >500 ms, unstable angina, or third degree heart block (unless with pacemaker) were not eligible to enroll.
Subsequently, the protocol was amended and all patients were treated on days 1, 8 and 15 of a 28 day cycle, with a starting dose of 14 mg/m^2. This change was made for improved patient tolerability. […] Provisions for dose reduction were made in the case of grade 3 or 4 toxicity. Alternatively, a dose increase was allowed for patients who had no serious toxicities.

[3] = Rhythm evaluation by Holter and telemetry monitoring; type: in vivo, human
Source text: Rhythm: A 24-hour Holter monitor was obtained prior to initiating therapy to establish a baseline rhythm. Patients were monitored by telemetry following administration of the first dose until discharge on day 3.

[4] = Bazett's formula, 2051 ECGs, 42 patients
[5] = first 6 cycles, all 42 patients
[6] = re-calculated using Friderica's formula

## C/C=C1\NC(=O)[C@H]2CSSCC/C=C/[C@H](CC(=O)N[C@H](C(C)C)C(=O)N2)OC(=O)[C@H](C(C)C)NC1=O [romidepsin, (1S,4S,10S,16E,21R)-7-[(2Z)-ethylidene]-4,21-diisopropyl-2-oxa-12,13-dithia-5,8,20,23-tetraazabicyclo[8.7.6]tricos-16-ene-3,6,9,19,22-pentanone]
[1]; 31 patients, first six cycles
  Maximal increase of QTc, median: 11.3%
  Maximum increase in QTc: 78.25 ms
[1]; 349 doses, 31 patients
  Doses associated with a 30 to 60 ms prolongation of QTc: 25%
  Doses associated with a greater than 60 ms prolongation of QTc: 2.6%
[1]; 670 ECGs obtained immediately post-treatment or on the day following treatment
  Median change of QTc from baseline: 13.42 ms
[1]; Bazett's formula
  Share of ECGs with QTc over 450 ms that were obtained immediately post treatment or on the day following treatment: Eighty-nine
[1]; Bazett's formula, 42 patients
  Number of patients with QTc greater than 450 ms: 28
  Number of patients with QTc greater than 480 ms: 10
  Number of patients with QTc greater than 500 ms: 4
[1]; [4]
  Number of ECGs with QTc greater than 450 ms: 163
  Number of ECGs with QTc greater than 480 ms: 20
  Number of ECGs with QTc greater than 500 ms: 5
  Share of ECGs with QTc greater than 450 ms: 8.0%
  Share of ECGs with QTc greater than 480 ms: 1%
  Share of ECGs with QTc greater than 500 ms: 0.2%
[1]; C1
  QTc Interval Difference [D2]-[4 hr], Median: 0.0 ms
  QTc Interval Difference [D3]-[Baseline], Median: -2.5 ms
  QTc Interval Difference [D3]-[D2], Median: -20.0 ms
[1]; C1 (cycle 1)
  QTc Interval Difference [D2]-[Baseline], Median: 10.8 ms
[1]; C1 (cycle 1), first dose, day 1, 8, 15 schedule
  QTc Interval Difference [4 hr]-[Baseline], Median: 16.5 ms
[1]; C2
  QTc Interval Difference [4 hr]-[Baseline], Median: 8.0 ms
  QTc Interval Difference [D2]-[Baseline], Median: 13.2 ms
[1]; C3
  QTc Interval Difference [4 hr]-[Baseline], Median: 15.5 ms
  QTc Interval Difference [D2]-[Baseline], Median: 5.3 ms
[1]; C4
  QTc Interval Difference [4 hr]-[Baseline], Median: 15.9 ms
  QTc Interval Difference [D2]-[Baseline], Median: 15.5 ms
[1]; C5
  QTc Interval Difference [4 hr]-[Baseline], Median: 18.2 ms
  QTc Interval Difference [D2]-[Baseline], Median: 14.8 ms
[1]; C6
  QTc Interval Difference [4 hr]-[Baseline], Median: 18.8 ms
  QTc Interval Difference [D2]-[Baseline], Median: 17.8 ms
[1]; Post dose, 31 patients, p < 0.0001 vs pre-dose
  Least Square mean QT interval: 424.1*
[1]; Pre-dose, 31 patients
  Least Square mean QT interval: 409.7
[1]; baseline QTc of 415.75
  Maximum increase in QTc over that patient's mean baseline QTc: 19%
[1]; day 1 (pre-treatment), 31 patients, repeated measures ANOVA
  Least Square mean QT interval: 410.3
[1]; day 2 (day after treatment), 31 patients
  Least Square mean QT interval: 422.7
[1]; day 8 (pre-treatment), 31 patients
  Least Square mean QT interval: 410.8
[1]; day 9 (day after treatment), 31 patients
  Least Square mean QT interval: 426.0
[1]; day 15 (pre-treatment), 31 patients
  Least Square mean QT interval: 408.0
[1]; day 16 (day after treatment), 31 patients
  Least Square mean QT interval: 423.7
[1]; [5]
  Doses associated with a 30 to 60 ms prolongation of QTc: 24%
  Doses associated with a greater than 60 ms prolongation of QTc: 3.2%
[1]; first cycle
  Time after treatment by which QTc changes had reverted to baseline: ≤ 48 h
[1]; of 670 ECGs obtained immediately post-treatment or on the day following treatment, 31 patients
  Number of ECGs demonstrating an increased QTc from baseline: 514
[1]; [6]
  Number of ECGs with QTc greater than 450 ms: 27
  Number of ECGs with QTc greater than 480 ms: 3
  Number of patients with QTc greater than 450 ms: 15
  Number of patients with QTc greater than 480 ms: 3
  QTc greater than 500 ms: no QTc was greater than 500 ms
  Share of ECGs with QTc greater than 450 ms: 1.3%
  Share of ECGs with QTc greater than 480 ms: 0.1%
[2]; 42 patients, phase II trial
  Observed toxicities: primarily nausea and fatigue
[2]; one patient with significant ectopy prior to initiation of protocol
  Pre-treatment and post-treatment EP studies: no change in intracardiac conduction or inducibility of any arrhythmias
[2]; telemetry, abnormal magnesium and potassium levels
  Cardiac event in a patient with QTc greater than 500: 12 beat run of VT that was asymptomatic and did not recur
[3]; 20 administrations to 9 patients, including 2 with VT pre-treatment
  VT on 24-hour Holter during administration: No patient had VT
[3]; 20 administrations to 9 patients, episodes similar to pretreatment Holter
  Patients noted to have SVT on 24-hour Holter during administration: Two
[3]; telemetry 24-36 hours, 36 patients, max one event per 24 hr, 4 to 12 beats
  Additional patients observed to have wide complex tachycardia on telemetry: Four
[3]; telemetry 24-36 hours, 36 patients, similar frequency on pre-treatment Holter
  Additional patients observed to have rare SVT on telemetry: Three

— patent US9259452B2, “Deacetylase inhibitor therapy” (Celgene Corporation, priority 2006, dated 2016)
